Data: patent US6756389B2, “Pharmaceutically active compounds and methods of use” (Cambridge Neuroscience, Inc., priority 1996, dated 2004)
Where a name gives a salt, the structure may show the parent alone.

Tested on: DBA/2 mice (audiogenic seizures)
Assay: In vivo anticonvulsant activity in the DBA/2 mouse model (mouse audiogenic assay)
Details: 10 mg/kg intraperitoneally 30 minutes prior to auditory stimulus (12 KHz sine wave, 110-120 db, 60 seconds), inhibition relative to vehicle controls
Protocol: As discussed above, preferred compounds of the invention are active in a standard anticonvulsant in vivo audiogenic test, such as the audiogenic mouse assay of Example 6 which follows, where DBA/2 mice about 20-23 days old are injected intraperitoneally with a test compound 30 minutes prior to being placed in a bell jar with exposure to auditory stimulus of 12 KHz sine wave at 110-120 db. References herein in vivo “audiogenic assay” are intended to refer to that protocol. […] As discussed above, activity in the audiogenic assay has been recognized as indicative that a test compound has neuroprotective properties. See, e.g., M. Tricklebank et al., European Journal of Pharmacology, supra; T. Seyfried, Federation Proceedings, supra.
Compounds were tested for their effectiveness in preventing seizures in DBA/2 mice which have a unique sensitivity to auditory stimulation. Exposure to loud high-frequency sounds can trigger seizure activity in these animals. […]
Mice were injected intraperitoneally with the compound specified in Table I below or with vehicle control, 30 minutes prior to being placed in a bell jar and turning on the auditory stimulus (12 KHz sine wave at 110-120 db). […] The auditory stimulus was left on for 60 seconds and mice reactions were timed and recorded. Percentage inhibition was determined with reference to vehicle controls.

| SMILES | Audiogenic Response % Inhib. |
| --- | --- |
| Cc1ccc([C@H]2CCC[C@@H](c3ccc(C)cc3)N2C(=N)N)cc1 [Example 1, N-carboximidamide-r-2, c-6-di(4-methylphenyl)piperidine] | 42% |
| CC(C)c1ccc([C@H]2CCC[C@@H](c3ccc(C(C)C)cc3)N2C(=N)N)cc1.Cl [Example 2, N-carboximidamide-r-2,c-6-di(4-isopropylphenyl)piperidine] | 69% |

Tested on: not given
Assay: not given
Details: not given

| SMILES | melting point |
| --- | --- |
| Cc1ccc([C@H]2CCC[C@H](c3ccc(C)cc3)N2C(=N)N)cc1.Cl | 120 °C |
| Cl.N=C(N)N1[C@@H](c2ccccc2)CC[C@H]1c1ccccc1 | 242 to 244 °C |
| Cl.N=C(Nc1ccccc1)N1[C@@H](c2ccccc2)CCC[C@H]1c1ccccc1 | 82 to 84 °C |
| Cc1ccc([C@H]2CCC[C@@H](c3ccc(C)cc3)N2C(=N)N)cc1 (as salt: mesylate) [Example 1, N-carboximidamide-r-2, c-6-di(4-methylphenyl)piperidine] | 183 to 185 °C |
| CC(C)c1ccc([C@H]2CCC[C@@H](c3ccc(C(C)C)cc3)N2C(=N)N)cc1.Cl [Example 2, N-carboximidamide-r-2,c-6-di(4-isopropylphenyl)piperidine] | 197 to 199 °C |
